# Values joined by “and” are separate entries in the source; they are usually repeats but may differ in a detail not shown here. Equal entries are not always repeated.
# Columns and labels:
# [1] = test system: Colo375FG metastatic pancreatic adenocarcinoma cells; assay: Live cell number (Coulter counter, methylene blue, PI exclusion); assay type: cell-based, human
# Protocol: Colo375FG metastatic pancreatic adenocarcinoma cells are cultured in Dulbecco Modified Eagle Medium with 10% fetal bovine serum. Cells are plated at 10^5 per P100 or at 10^4 per P60 (for assays requiring up to 3 days of culture), in the presence of different concentrations of BiPar compounds and other agents, or DMSO control. Following treatment, the number of attached cells is measured using Coulter counter, and by staining with 1% methylene blue. Methylene blue is dissolved in 50%-50% mixture of Methanol and water. Cells are plated in 24- or 96-well plates and treated with compounds as indicated, then media are aspirated, cells are washed with PBS, fixed in methanol for 5-10 min, washed and the plates are allowed to dry completely. Methylene blue solution is added to wells and plates are incubated for 5 min. Staining solution is removed and plates are washed with dH2O. After plates are completely dry, a small amount of 1N HCl is added to each well to extract the methylene blue. The OD readout at 600 nm and a calibration curve are used to determine cell number.
# IIIg (6-nitro-5-iodo-benzopyrone) is dissolved directly from dry powder to 10 mM stock solution in DMSO for each separate experiment, and then the entire volume of the stock solution is used to prepare working concentrations in cell culture medium to avoid any possibility of precipitation and the corresponding loss of compound. Control experiments are carried out with the matching volume/concentration of the vehicle (DMSO).
# (§1) After the addition of drugs and incubation, cells are trypsinized and aliquots of the samples are taken for counting and PI (Propidium Iodide) exclusion assay. One part of the cells is centrifuged and resuspended in 0.5 ml ice-cold PBS containing 5 μg/ml of PI. The other part of the cells is fixed in ice-cold 70% ethanol and stored in a freezer overnight. For cell cycle analysis, cells are stained with propidium iodide (PI) by standard procedures. Cellular DNA content is determined by flow cytometry using BD LSRII FACS, and the percentages of cells in G1, S or G2/M are determined using ModFit software.
# Colo375FG metastatic pancreatic adenocarcinoma cells are obtained from ATCC and cultured in Dulbecco Modified Eagle Medium with 10% fetal bovine serum. Cells are plated at 10^5 cells per P100 cell culture dish or at 10^4 cells per P60 cell culture dish in the presence of different concentrations compounds or DMSO control. Following treatment, the number of attached cells is measured using Coulter counter, and by staining with 1% methylene blue. Methylene blue is dissolved in 50%-50% mixture of Methanol and water. Cells are plated in 24- or 96-well plates and treated as planned, media are aspirated, cells are washed with PBS, fixed in methanol for 5-10 min, methanol is aspirated and plates are allowed to dry completely. Methylene blue solution is added to wells and plates are incubated for 5 min. Staining solution is removed and plates are washed with dH2O until washes are no longer blue. After plates are completely dry, a small amount of 1N HCl is added to each well to extract the methylene blue. The OD readout at 600 nm and a calibration curve are used to determine cell number.
# Compounds of the invention are dissolved directly from dry powder to 10 mM stock solution in DMSO for each separate experiment. Control experiments are carried out with the matching volume/concentration of the vehicle (DMSO). In these controls, the cells show no changes in their growth or cell cycle distribution.
# as §1, with “ug/ml” for “μg/ml”, “Cellular DNA content is determined by flow cytometry using BD LSRII FACS, and the percentages of cells in G1, S or G2/M are determined using ModFit software.” left out
# [2] = test system: Colo375FG metastatic pancreatic adenocarcinoma cells; assay: TUNEL apoptosis assay (flow cytometry); assay type: cell-based, human; settings: for Dead cells TUNEL (%): Compound IIIc 0 mM
# Protocol: Cells are labeled for apoptosis with the “In Situ Cell Death Detection Kit, Fluorescein” (Roche Diagnostics Corporation, Roche Applied Science, Indianapolis, Ind.). Briefly, fixed cells are centrifuged and washed once in phosphate-buffered saline (PBS) containing 1% bovine serum albumin (BSA), then resuspended in 2 ml permeabilization buffer (0.1% Triton X-100 and 0.1% sodium citrate in PBS) for 25 min at room temperature and washed twice in 0.2 ml PBS/1% BSA. The cells are resuspended in 50 μl TUNEL reaction mixture (TdT enzyme and labeling solution) and incubated for 60 min at 37° C. in a humidified dark atmosphere in an incubator. The labeled cells are washed once in PBS/1% BSA, then resuspended in 0.5 ml ice-cold PBS containing 1 μg/ml 4′,6-diamidino-2-phenylindole (DAPI) for at least 30 min. All cell samples are analyzed with a BD LSR II (BD Biosciences, San Jose, Calif.).
# The cells are labeled for apoptosis with the “In Situ Cell Death Detection Kit, Fluorescein” (Roche Diagnostics Corporation, Roche Applied Science, Indianapolis, Ind.). Briefly, fixed cells are centrifuged and washed once in phosphate-buffered saline (PBS) containing 1% bovine serum albumin (BSA), then resuspended in 2 ml permeabilization buffer (0.1% Triton X-100 and 0.1% sodium citrate in PBS) for 25 minutes at room temperature and washed twice in 0.2 ml PBS/1% BSA. The cells are resuspended in 50 μl TUNEL reaction mixture (TdT enzyme and labeling solution) and incubated for 60 min at 37° C. in a humidified dark atmosphere in an incubator. The labeled cells are washed once in PBS/1% BSA, then resuspended in 0.5 ml ice-cold PBS containing 1 μg/ml 4,6-diamidino-2-phenylindole (DAPI) for at least 30 min. All cell samples are analyzed with a BD LSR II (BD Biosciences, San Jose, Calif.).
# [3] = combination: IIIg 2.5 μM + OxaliPt 10 μM
# [4] = combination: IIIg 2.5 μM + OxaliPt 20 μM
# [5] = combination: IIIg 12.5 μM + OxaliPt 10 μM
# [6] = combination: IIIg 12.5 μM + OxaliPt 20 μM
# [7] = combination: IIIg 25 μM + OxaliPt 10 μM
# [8] = combination: IIIg 25 μM + OxaliPt 20 μM
smiles,measurement,setting,value
"O=c1ccc2c(I)c([N+](=O)[O-])ccc2o1 [IIIg, 5-iodo-6-nitro-benzopyrone]",Live Cell (%),"[1]; IIIg 2.5 μM, OxaliPt 0 μM",100% and 118%
same,Percentage of live cells,[1]; combination of IIIg and oxaliplatin,significantly reduces the percentage of live cells
same,Live Cell (%),[1]; [3],62%
same,Live Cell (%),[1]; [4],27%
same,Live Cell (%),[1]; [5],22%
same,Live Cell (%),[1]; [6],13%
same,Live Cell (%),[1]; [7],11%
same,Live Cell (%),[1]; [8],7%
same,TUNEL (%),"[2]; IIIg 2.5 μM, OxaliPt 0 μM",3.3% and 2.5%
same,TUNEL (%),[2]; [3],19%
same,TUNEL (%),[2]; [4],42%
same,TUNEL (%),[2]; [5],57.3%
same,TUNEL (%),[2]; [6],85.7%
same,TUNEL (%),[2]; [7],89.5%
same,TUNEL (%),[2]; [8],94.2%
"O=C1[O][Pt]2([NH][C@@H]3CCCC[C@H]3[NH]2)[O]C1=O [OxaliPt, oxaliplatin, reference compound]",Live Cell (%),"[1]; Compound IIIc 0 mM, OxaliPt 10 mM",54%
same,Live Cell (%),"[1]; Compound IIIc 0 mM, OxaliPt 20 mM",29%
same,Live Cell (%),"[1]; IIIg 0 μM, OxaliPt 10 μM",54%
same,Live Cell (%),"[1]; IIIg 0 μM, OxaliPt 20 μM",29%
same,Dead cells TUNEL (%),[2]; OxaliPt 10 mM,21.0%
same,Dead cells TUNEL (%),[2]; OxaliPt 20 mM,48.3%
same,TUNEL (%),"[2]; IIIg 0 μM, OxaliPt 10 μM",21%
same,TUNEL (%),"[2]; IIIg 0 μM, OxaliPt 20 μM",48.3%
